Laboratory results as given in US6962945B2, “N-aryloxypropanolyl-N′-phenethyl-urea” (Council of Scientific and Industrial Research, priority 2004, dated 2005).
Entries after “also recorded” stand apart in the source; their conditions may differ.

Test system: adult male Sprague Dawley rats
Experiment: appetite suppressant activity on scheduled fed rat model of appetite
Format: in vivo
Conditions: 20 μmol/kg, by oral route; for change in gross behaviour: observed during the period of feeding; for decrease in food intake as compared to food intake in the control group: fat rich diet 3 h daily, 30 min prior to food
Experimental: The pharmacological evaluation of the test compounds of general formula 3 was carried out by the following protocol.
The appetite suppressant activity of test compounds was tested on scheduled fed rat model of appetite. The study was conducted in adult male Sprague Dawley rats, weighing 175-200 g on arrival). The animals were housed in transparent cages of Bayer Makrolon type 3118 measuring 425×266×180 with floor area 800 cm^2. In each cage one rat was kept. A special fat rich diet (Diet #12451, Research Diets, NJ, USA) was provided only for 3 h (11 am-2 pm) daily [no diet in rest of the period]. Water was provided for 24 h. Diet was weighed prior to and after observation period by an electronic [Digital display] balance. Food intake was recorded by calculating the difference between prior and after weight of diet. Rats were weighed weekly after feeding. Rats were provided 16 g of diet daily and within 12-14 days animals achieved base line food intake (12-14 g) with gain in body weight (230-250 g) indicating adaptation to scheduled feeding. Only those rats that adapted to schedule feeding were used in the study. Rat showing significant less food intake and weight gain as compared to others was excluded from the study.
Thereafter, tests compounds dissolved in 10% DMSO aqueous solution and given in dose of 20 μmol/kg, by oral route. The test compounds were administered 30 min prior to food. Each test compounds were given in 5 rats. Diet and water was weighed at hourly interval in control and compound treated rats. During the period of feeding the gross behavior of rat was also observed.
The significance of difference between the food intake of treated and control groups was determined by unpaired Student's test [Two tailed p value].

SMILES | change in water intake | change in gross behaviour | decrease in food intake as compared to food intake in the control group [%] | activity compared with Sibutramine
OC(CNC(=S)NCCc1ccccc1)COc1ccc(C(F)(F)F)cc1 (centres unmarked) [compound 3n, N-[2-hydroxy-3-(4-trifluoromethylphenoxy)propyl]-N′-2-phenethyl-thiourea] | did not cause any significant change | did not cause any significant change | 28.4 | 
CC(C)CC(N(C)C)C1(c2ccc(Cl)cc2)CCC1 (centres unmarked) [Sibutramine, reference compound] |  |  | 38.57 | 
O=C(NCCc1ccccc1)NCC(O)COc1ccc(C(F)(F)F)cc1 (centres unmarked) [compound 3a, N-[2-hydroxy-3-(4-trifluoromethylphenoxy)propyl]-N′-2-phenethyl-urea] | did not cause any significant change | did not cause any significant change | 41.42 | comparable; also recorded: same activity as Sibutramine
COc1ccc(OCC(O)CNC(=O)NCCc2ccccc2)cc1 (centres unmarked) [compound 3j, N-[2-hydroxy-3-(4-methoxyphenoxy)propyl]-N′-2-phenethyl-urea] | did not cause any significant change | did not cause any significant change | 31.82 | 
